Holding throughout (format): functional
In assay [1] the test system is P388. Description: Cytotoxicity against mouse P388 cells after 48 hrs by cell counting. As to conditions: P388, 48 h, read-out: ED50 (the source's name).
Assay [2] deals with MCF7. The experiment in a line: Cytotoxicity against human MCF7 cells after 48 hrs by SRB assay. The conditions noted are these: MCF7, 48 h.
The test system of assay [3] is SF-268. The experiment in a line: Cytotoxicity against human SF268 cells after 48 hrs by SRB assay. The conditions noted are these: SF-268, 48 h. In general terms: Sulforhodamine B stains cellular protein and so reports cell mass.
Assay [4] relates to DU-145. Description: Cytotoxicity against human DU145 cells after 48 hrs by SRB assay. The conditions noted are these: DU-145, 48 h.
In assay [5] the test system is BXPC-3. Description: Cytotoxicity against human BxPC3 cells after 48 hrs by SRB assay. As to conditions: BXPC-3, 48 h.
The test system of assay [6] is NCI-H460. The experiment in a line: Cytotoxicity against human NCI-H460 cells after 48 hrs by SRB assay. The conditions noted are these: NCI-H460, 48 h.
The subject of assay [7] is KM-20L2. The experiment in a line: Cytotoxicity against human KM20L2 cells after 48 hrs by SRB assay. As to conditions: KM-20L2, 48 h.

≈ marks a conversion by molar mass, not a printed value.

Results on three compounds are retold here after ChEMBL document CHEMBL2034872, “Antineoplastic agents. 587. Isolation and structure of 3-epipancratistatin from Narcissus cv. Ice Follies” (2012).

In general, GI50 refers to the concentration that inhibits growth by half.

For `O=C1N[C@@H]2C(=C[C@H](O)[C@@H](O)[C@H]2O)c2cc3c(c(O)c21)OCO3` [NARCICLASINE], the EC50 in assay [1] worked out at 0.018 µg/mL (≈ 0.0586 µM).
Consider `O=C1N[C@H]2[C@H](O)[C@@H](O)[C@@H](O)[C@H](O)[C@@H]2c2cc3c(c(O)c21)OCO3` (relative stereo), for which the GI50 in assay [2] was 2.2 µg/mL (≈ 6.76 µM); in assay [3] it was 0.74 µg/mL (≈ 2.28 µM); in assay [4], 1.3 µg/mL (≈ 4 µM); in assay [5], 1.7 µg/mL (≈ 5.23 µM); in assay [6], 0.85 µg/mL (≈ 2.61 µM); in assay [7], 2.3 µg/mL (≈ 7.07 µM). The EC50 in assay [1] is 0.69 µg/mL (≈ 2.12 µM).
As to `O=C1N[C@H]2[C@H](O)[C@H](O)[C@@H](O)[C@H](O)[C@@H]2c2cc3c(c(O)c21)OCO3` [PANCRATISTATIN], the GI50 in assay [2] came out at 0.023 µg/mL (≈ 0.0707 µM); in assay [3], 0.014 µg/mL (≈ 0.043 µM); in assay [4], 0.015 µg/mL (≈ 0.0461 µM); in assay [5], 0.02 µg/mL (≈ 0.0615 µM); in assay [6] it was 0.032 µg/mL (≈ 0.0984 µM); in assay [7], 0.025 µg/mL (≈ 0.0769 µM). For the same compound, in assay [1], the EC50 turned out to be 0.017 µg/mL (≈ 0.0523 µM).
